This note sets out measurements from ChEMBL document CHEMBL3407496, “Chalcones and their therapeutic targets for the management of diabetes: structural and pharmacological perspectives” (Eur J Med Chem, 2015).

In assay [1] the target is Aldo-keto reductase family 1 member B1 (Homo sapiens) (UniProt P15121). Kind of assay: Inhibition of ALR2 (unknown origin). Conditions: concentration not given here.
A further assay is filed under the species Homo sapiens. Briefly: Inhibition of ALR1 (unknown origin). Particulars: concentration not given here.
Assay [2] deals with T1, Tyrosine-protein phosphatase non-receptor type 1 (Homo sapiens, UniProt P18031).
T1 sequence (P18031 whole entry): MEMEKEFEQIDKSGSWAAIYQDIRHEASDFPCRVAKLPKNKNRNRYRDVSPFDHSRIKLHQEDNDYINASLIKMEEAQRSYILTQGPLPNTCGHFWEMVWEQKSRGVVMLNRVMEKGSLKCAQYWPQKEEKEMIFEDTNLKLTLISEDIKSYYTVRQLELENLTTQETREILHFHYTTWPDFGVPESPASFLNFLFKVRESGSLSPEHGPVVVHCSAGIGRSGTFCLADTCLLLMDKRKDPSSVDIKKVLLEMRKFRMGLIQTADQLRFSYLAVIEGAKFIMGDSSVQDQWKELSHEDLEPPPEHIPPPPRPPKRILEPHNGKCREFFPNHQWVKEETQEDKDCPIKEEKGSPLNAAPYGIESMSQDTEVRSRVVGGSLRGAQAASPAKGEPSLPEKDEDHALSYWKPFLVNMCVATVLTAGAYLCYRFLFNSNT
Briefly: Competitive inhibition of PTP1B (unknown origin) using p-nitrophenyl phosphate as substrate.

Assay [3] deals with Aldo-keto reductase family 1 member B1 (Homo sapiens) (UniProt P15121). Kind of assay: Inhibition of aldose reductase (unknown origin) at 10 ug/ml.
Assay [4] can be described thus: Non-competitive inhibition of alpha-glucosidase (unknown origin). Details: species or system Homo sapiens.
Assay [5] deals with T1, Tyrosine-protein phosphatase non-receptor type 1. Briefly: Inhibition of PTP1B (unknown origin).
Assay [6] addresses T2, Solute carrier family 2, facilitated glucose transporter member 4 (Rattus norvegicus) (UniProt P19357).
T2 sequence (whole entry): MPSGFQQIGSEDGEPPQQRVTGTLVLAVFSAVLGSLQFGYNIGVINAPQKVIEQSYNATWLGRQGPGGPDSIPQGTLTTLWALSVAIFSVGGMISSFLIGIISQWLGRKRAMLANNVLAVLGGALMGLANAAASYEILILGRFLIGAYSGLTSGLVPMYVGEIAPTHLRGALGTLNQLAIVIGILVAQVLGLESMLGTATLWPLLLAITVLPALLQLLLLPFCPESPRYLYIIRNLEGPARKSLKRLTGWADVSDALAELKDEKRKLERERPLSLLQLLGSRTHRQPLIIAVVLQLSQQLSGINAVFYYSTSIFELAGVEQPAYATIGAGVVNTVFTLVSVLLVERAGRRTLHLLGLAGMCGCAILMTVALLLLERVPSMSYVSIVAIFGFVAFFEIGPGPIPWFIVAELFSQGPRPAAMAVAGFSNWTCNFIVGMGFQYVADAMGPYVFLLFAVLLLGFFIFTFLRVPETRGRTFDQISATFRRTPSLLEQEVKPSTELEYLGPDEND
Kind of assay: Induction of GLUT4 translocation in rat L6 cells assessed as increase in 2-deoxyglucose uptake relative to control. Type of assay: cell-based.

The next assay deals with Oryctolagus cuniculus. Kind of assay: Reduction of blood glucose in normoglycemic rabbit at 50 mg/kg, po after 4 hrs. Details: scale not given: the % may be the effect or the level left. The class given is functional.

Molecules are shown by their SMILES.

A word on the inhibition: it is how much of the control response was suppressed. For `O=C(/C=C/c1ccc(Cl)cc1)c1ccc(O)cc1O`, the inhibition (in assay [1]; in the assay filed under Homo sapiens) was 35% each time.

Usually IC50 stands for the concentration needed to halve the response being measured. Turning to `O=C(/C=C/c1ccco1)c1cccc(Cl)c1`, the 50% inhibitory concentration (IC50) in assay [2] was 2.9 µM. `COc1cc(O)c(CC=C(C)C)c(O)c1C(=O)/C(O)=C/c1ccc(O)cc1` yielded an inhibition in assay [3] of 53.7%. On to `CC(C)=CCc1cc(C(=O)/C=C/c2ccc(O)c(O)c2)c(O)cc1O` [BROUSSOCHALCONE A], for which the IC50 in assay [4] was 5.3 µM; in assay [5], 21.5 µM.

For the compound `C=C(C)C(CCC(C)(C)O)Cc1c(O)cc(OC)c(C(=O)/C(O)=C/c2ccc(O)cc2O)c1O` (stereo unspecified), in assay [3], the inhibition was found to be 53.7%. Same read-out and setting: to `C=C(C)C(CC=C(C)C)Cc1c(O)cc(OC)c(C(=O)/C(O)=C/c2ccc(O)cc2O)c1O` (stereo unspecified) belongs 53.7%. In the case of `CSc1ccc(/C=C/C(=O)c2ccc(O)cc2O)cc1`, the inhibition (in assay [1]; in the assay listed under Homo sapiens) was 35% throughout. Turning to `CC(/C=C1\SC(=S)N(CC(=O)O)C1=O)=C\c1ccccc1`, the inhibition in assay [3] came out at 55.6%. As for `CC1(C)CCc2cc(C(=O)/C=C/c3ccc(O)cc3)c(O)cc2O1`, the IC50 in assay [4] worked out at 5.3 µM. The same measure, in the same setting: to `CC1(C)CCc2cc(C(=O)/C=C/c3ccc(O)c(O)c3)c(O)cc2O1` belongs 5.3 µM. `COc1ccc(C(=O)/C=C/c2ccc(O)cc2)c(O)c1CC=C(C)C`: the Ratio in assay [6] turned out to be 1.9. As to `Cc1ccc(S(=O)(=O)CC(=O)Cc2ccccc2C(=O)/C=C/c2ccc(Cl)cc2Cl)cc1`, the Activity with Oryctolagus cuniculus came to 38.73%. For `CC(C)=CCC/C(C)=C/Cc1c(O)ccc(C(=O)/C=C/c2ccc(O)cc2)c1O`, in assay [6], the Ratio was 1.9. For the compound `O=C(/C=C/c1ccco1)c1ccc(O)cc1O`, the IC50 in assay [2] came to 2.49 µM. For `COc1ccc(/C=C/C(=O)c2ccc(OC)cc2O)cc1`, the inhibition (in assay [1]; in the assay listed under Homo sapiens) was 35% in each case. As for `CC(C)=CCc1cc(C(=O)/C=C/c2ccc(O)cc2)c(O)cc1O` [BROUSSOCHALCONE B], the half-inhibitory concentration (IC50) in assay [4] was found to be 5.3 µM. `COc1cc(O)c(CC=C(C)C)c(O)c1C(=O)/C=C/c1ccc(O)cc1` [XANTHOHUMOL] showed an IC50 in assay [4] of 8.8 µM.
